Structures are written as SMILES.

Experiment [1] deals with Peripheral Blood Mononuclear Cells (PBMCs), TNFα release. The experiment can be described thus: LPS-stimulated PBMC TNFα release assay. In kind it is cell-based. The conditions noted are these: human PBMC, LPS (10 ng/ml), 18 h, compound 1 h before LPS; read-out: LPS-stimulated PBMC TNFα release inhibition. An outline of the steps: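 Human PBMCs from healthy donors, serum-starved 3 h, then pre-incubated 1 h at 37 °C with compound in 1% FBS medium before LPS (10 ng/ml) for 18 h. Supernatant TNFα measured by MSD; IC50 from dose-response as % inhibition of control, at least three experiments.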

Experiment [2] deals with T1, p38 alpha (Homo sapiens, UniProt Q16539).
T1 construct: purchased Invitrogen PV3304
T1 sequence (Q16539 whole entry): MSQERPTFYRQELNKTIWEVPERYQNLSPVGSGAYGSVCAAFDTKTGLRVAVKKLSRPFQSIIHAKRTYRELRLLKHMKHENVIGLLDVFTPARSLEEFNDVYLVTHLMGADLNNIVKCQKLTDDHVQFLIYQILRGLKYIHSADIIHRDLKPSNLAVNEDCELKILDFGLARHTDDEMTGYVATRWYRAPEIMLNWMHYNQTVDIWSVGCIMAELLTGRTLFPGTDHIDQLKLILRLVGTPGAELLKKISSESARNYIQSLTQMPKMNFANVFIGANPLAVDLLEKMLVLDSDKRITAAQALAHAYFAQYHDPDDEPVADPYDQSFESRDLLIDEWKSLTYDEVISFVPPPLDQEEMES
Description: P38 alpha enzyme inhibition assay (Alphascreen kinase activity assay). In kind it is biochemical. The settings on record: 100 pM p38 alpha, 2 hours preincubation at 25° C., 250 μM ATP, ATF-2 fusion protein; read-out: p38α inhibition. An outline of the steps:
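100 pM p38 alpha preincubated 2 h at 25 °C with compound and 0.3 μg/ml ATF-2 fusion substrate (HEPES pH 7.5, MgCl2, 1% DMSO). Reaction started with 250 μM ATP, run 1 h at 25 °C, stopped with EDTA; phospho-ATF2 detected by AlphaScreen luminescence. IC50 from concentration-response curves.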
For orientation: Bead proximity is the source of the signal in Alpha formats.

`CC(C)(C)c1cc(NC(=O)N[C@H]2CC[C@@H](Oc3ccc4nnc(C5CCCC5)n4c3)c3ccccc32)nc(C(=O)NCCN2CCOCC2)n1` [Example 75, 4-(tert-butyl)-6-(3-((1S,4R)-4-((3-cyclopentyl-[1,2,4]triazolo[4,3-a]pyridin-6-yl)oxy)-1,2,3,4-tetrahydronaphthalen-1-yl)ureido)-N-(2-morpholinoethyl)-pyrimidine-2-carboxamide]: the figures for the IC50 in experiment [1] and in experiment [2] were above 5 nM and 1 to 10 nM, respectively.

For `COCCN(C)CCNC(=O)c1nc(NC(=O)N[C@H]2CC[C@@H](Oc3ccc4nnc(C5CCCC5)n4c3)c3ccccc32)cc(C(C)(C)C)n1` [Example 76, 4-(tert-butyl)-6-(3-((1S,4R)-4-((3-cyclopentyl-[1,2,4]triazolo[4,3-a]pyridin-6-yl)oxy)-1,2,3,4-tetrahydronaphthalen-1-yl)ureido)-N-(2-((2-methoxyethyl)(methyl)-amino)ethyl)pyrimidine-2-carboxamide], the IC50 in experiment [1] was above 5 nM; in experiment [2], 1 to 10 nM.

For `CN(CCO)CCNC(=O)c1nc(NC(=O)N[C@H]2CC[C@@H](Oc3ccc4nnc(C(C)(C)C)n4c3)c3ccccc32)cc(C(C)(C)C)n1` [Example 77, 4-(tert-butyl)-6-(3-((1S,4R)-4-((3-(tert-butyl)-[1,2,4]triazolo[4,3-a]pyridin-6-yl)oxy)-1,2,3,4-tetrahydronaphthalen-1-yl)ureido)-N-(2-((2-hydroxyethyl)(methyl)-amino)ethyl)pyrimidine-2-carboxamide], the IC50 in experiment [1] is 1 to 5 nM; in experiment [2], below 1 nM.

On to `CC(C)(C)c1cc(NC(=O)N[C@H]2CC[C@@H](Oc3ccc4nnc(C(C)(C)C)n4c3)c3ccccc32)nc(C(=O)NCCN2CC(O)C2)n1` [Example 78, 4-(tert-butyl)-6-(3-((1S,4R)-4-((3-(tert-butyl)-[1,2,4]triazolo[4,3-a]pyridin-6-yl)oxy)-1,2,3,4-tetrahydronaphthalen-1-yl)ureido)-N-(2-(3-hydroxyazetidin-1-yl)ethyl)pyrimidine-2-carboxamide], for which the IC50 in experiment [1] was above 5 nM; in experiment [2], below 1 nM.

`CC(C)(C)c1cc(NC(=O)N[C@H]2CC[C@@H](Oc3ccc4nnc(C(C)(C)C)n4c3)c3ccccc32)nc(C(=O)NCCCN2CCOCC2)n1` [Example 80, 4-(tert-butyl)-6-(3-((1S,4R)-4-((3-(tert-butyl)-[1,2,4]triazolo[4,3-a]pyridin-6-yl)oxy)-1,2,3,4-tetrahydronaphthalen-1-yl)ureido)-N-(3-morpholinopropyl)-pyrimidine-2-carboxamide]: the IC50 was 1 to 5 nM in experiment [1] and 1 to 10 nM in experiment [2].

For `CN1CC(NC(=O)c2nc(NC(=O)N[C@H]3CC[C@@H](Oc4ccc5nnc(C(C)(C)C)n5c4)c4ccccc43)cc(C(C)(C)C)n2)C1` [Example 81, 4-(tert-butyl)-6-(3-((1S,4R)-4-((3-(tert-butyl)-[1,2,4]triazolo[4,3-a]pyridin-6-yl)oxy)-1,2,3,4-tetrahydronaphthalen-1-yl)ureido)-N-(1-methylazetidin-3-yl)pyrimidine-2-carboxamide], the figures for the IC50 in experiment [1] and in experiment [2] were above 5 nM and below 1 nM, respectively.

Consider `CN(CCO)C(=O)c1nc(NC(=O)N[C@H]2CC[C@@H](Oc3ccc4nnc(C(C)(C)C)n4c3)c3ccccc32)cc(C(C)(C)C)n1` [Example 82, 4-(tert-butyl)-6-(3-((1S,4R)-4-((3-(tert-butyl)-[1,2,4]triazolo[4,3-a]pyridin-6-yl)oxy)-1,2,3,4-tetrahydronaphthalen-1-yl)ureido)-N-(2-hydroxyethyl)-N-methylpyrimidine-2-carboxamide], for which the IC50 was above 5 nM in experiment [1] and 1 to 10 nM in experiment [2].

Regarding `CC(C)(C)c1cc(NC(=O)N[C@H]2CC[C@@H](Oc3ccc4nnc(C(C)(C)C)n4c3)c3ccccc32)nc(C(=O)N[C@H]2C[C@H](CO)C2)n1` [Example 83, 4-(tert-butyl)-6-(3-((1S,4R)-4-((3-(tert-butyl)-[1,2,4]triazolo[4,3-a]pyridin-6-yl)oxy)-1,2,3,4-tetrahydronaphthalen-1-yl)ureido)-N-((1s,3R)-3-(hydroxymethyl)-cyclobutyl)pyrimidine-2-carboxamide], the IC50 in experiment [1] was 1 to 5 nM; in experiment [2] it was below 1 nM.

On to `CCC(CC)c1nnc2ccc(O[C@@H]3CC[C@H](NC(=O)Nc4cc(C(C)(C)C)nc(C(=O)NC5CN(C)C5)n4)c4ccccc43)cn12` [Example 84, 4-(tert-butyl)-N-(1-methylazetidin-3-yl)-6-(3-((1S,4R)-4-((3-(pentan-3-yl)-[1,2,4]triazolo[4,3-a]pyridin-6-yl)oxy)-1,2,3,4-tetrahydronaphthalen-1-yl)ureido)pyrimidine-2-carboxamide], for which the figures for the IC50 in experiment [1] and in experiment [2] were above 5 nM and below 1 nM, respectively.

As to `CCC(CC)c1nnc2ccc(O[C@@H]3CC[C@H](NC(=O)Nc4cc(C(C)(C)C)nc(C(=O)NCCN(CCOC)CCOC)n4)c4ccccc43)cn12` [Example 85, N-(2-(bis(2-methoxyethyl)amino)ethyl)-4-(tert-butyl)-6-(3-((1S,4R)-4-((3-(pentan-3-yl)-[1,2,4]triazolo[4,3-a]pyridin-6-yl)oxy)-1,2,3,4-tetrahydronaphthalen-1-yl)ureido)pyrimidine-2-carboxamide], the figures for the IC50 in experiment [1] and in experiment [2] were above 5 nM and below 1 nM, respectively.

In the case of `COCCN(CCOC)Cc1nc(NC(=O)N[C@H]2CC[C@@H](Oc3ccc4nnc(C(C)(C)C)n4c3)c3ccccc32)cc(C(C)(C)C)n1` [Example 86, 1-(2-((bis(2-methoxyethyl)amino)methyl)-6-(tert-butyl)pyrimidin-4-yl)-3-((1S,4R)-4-((3-(tert-butyl)-[1,2,4]triazolo[4,3-a]pyridin-6-yl)oxy)-1,2,3,4-tetrahydronaphthalen-1-yl)urea], the results for the IC50 in experiment [1] and in experiment [2] were above 5 nM and 1 to 10 nM, respectively.

On to `CC(C)(C)c1cc(NC(=O)N[C@H]2CC[C@@H](Oc3ccc4nnc(C(C)(C)C)n4c3)c3ccccc32)nc(CN(CCO)CCO)n1` [Example 87, 1-(2-((bis(2-hydroxyethyl)amino)methyl)-6-(tert-butyl)pyrimidin-4-yl)-3-((1S,4R)-4-((3-(tert-butyl)-[1,2,4]triazolo[4,3-a]pyridin-6-yl)oxy)-1,2,3,4-tetrahydronaphthalen-1-yl)urea], for which the IC50 in experiment [1] is above 5 nM; in experiment [2], below 1 nM.

Consider `CN(CCO)Cc1nc(NC(=O)N[C@H]2CC[C@@H](Oc3ccc4nnc(C(C)(C)C)n4c3)c3ccccc32)cc(C(C)(C)C)n1` [Example 88, 1-(6-(tert-butyl)-2-(((2-hydroxyethyl)(methyl)amino)methyl)pyrimidin-4-yl)-3-((1S,4R)-4-((3-(tert-butyl)-[1,2,4]triazolo[4,3-a]pyridin-6-yl)oxy)-1,2,3,4-tetrahydronaphthalen-1-yl)urea], for which the IC50 in experiment [1] is above 5 nM; in experiment [2] it was 1 to 10 nM.

Turning to `CC(C)(C)c1cc(NC(=O)N[C@H]2CC[C@@H](Oc3ccc4nnc(C(C)(C)C)n4c3)c3ccccc32)nc(C(=O)NCCN2CCCOCC2)n1` [Example 89, N-(2-(1,4-oxazepan-4-yl)ethyl)-4-(tert-butyl)-6-(3-((1S,4R)-4-((3-(tert-butyl)-[1,2,4]triazolo[4,3-a]pyridin-6-yl)oxy)-1,2,3,4-tetrahydronaphthalen-1-yl)ureido)pyrimidine-2-carboxamide], the IC50 in experiment [1] lay within 1 to 5 nM; in experiment [2] it was 1 to 10 nM.

In the case of `CC(C)Cc1nnc2ccc(O[C@@H]3CC[C@H](NC(=O)Nc4cc(C(C)(C)C)nc(C(=O)NCCN(C)C)n4)c4ccccc43)cn12` [Example 91, 4-(tert-butyl)-N-(2-(dimethylamino)ethyl)-6-(3-((1S,4R)-4-((3-isobutyl-[1,2,4]triazolo[4,3-a]pyridin-6-yl)oxy)-1,2,3,4-tetrahydronaphthalen-1-yl)ureido)pyrimidine-2-carboxamide], the IC50 is above 5 nM in experiment [1] and 1 to 10 nM in experiment [2].

Regarding `COCCN(CCNC(=O)c1nc(NC(=O)N[C@H]2CC[C@@H](Oc3ccc4nnc(C(C)(C)C)n4c3)c3ccccc32)cc(C(C)(C)C)n1)CCOC` [Example 92, N-(2-(bis(2-methoxyethyl)amino)-ethyl)-4-(tert-butyl)-6-(3-((1S,4R)-4-((3-(tert-butyl)-[1,2,4]triazolo[4,3-a]pyridin-6-yl)oxy)-1,2,3,4-tetrahydronaphthalen-1-yl)ureido)pyrimidine-2-carboxamide], the IC50 in experiment [1] is above 5 nM; in experiment [2] it was 1 to 10 nM.

As for `CC(C)(C)c1cc(NC(=O)N[C@H]2CC[C@@H](Oc3ccc4nnc(C(C)(C)C)n4c3)c3ccccc32)nc(C(=O)NCCN2CC[C@@H](O)C2)n1` [Example 93, 4-(tert-butyl)-6-(3-((1S,4R)-4-((3-(tert-butyl)-[1,2,4]triazolo[4,3-a]pyridin-6-yl)oxy)-1,2,3,4-tetrahydronaphthalen-1-yl)ureido)-N-(2-((R)-3-hydroxypyrrolidin-1-yl)ethyl)pyrimidine-2-carboxamide], the figures for the IC50 in experiment [1] and in experiment [2] were above 5 nM and below 1 nM, respectively.

`CC(C)(C)c1cc(NC(=O)N[C@H]2CC[C@@H](Oc3ccc4nnc(C(C)(C)C)n4c3)c3ccccc32)nc(C(=O)NCCN2CC[C@H](O)C2)n1` [Example 94, 4-(tert-butyl)-6-(3-((1S,4R)-4-((3-(tert-butyl)-[1,2,4]triazolo[4,3-a]pyridin-6-yl)oxy)-1,2,3,4-tetrahydronaphthalen-1-yl)ureido)-N-(2-((S)-3-hydroxypyrrolidin-1-yl)ethyl)pyrimidine-2-carboxamide]: the IC50 is above 5 nM in experiment [1] and below 1 nM in experiment [2].
